Results from patent US9655981B2, “Mixed micelles” (Omeros Corporation, priority 2011, dated 2017).

Columns and labels:
[1] = system: MDA-MB-435-MDR cells; assay: Cytotoxicity, MTS assay; conditions: 4 hours treatment, viability after 24 hours, 16 μg/mL DOX
Description: The cell lines which were used were the MDA-MB-435 (Parent) and MDA-MB-435-MDR (MDR) cell lines.
Cytotoxicity was measured by treating MDA-MB-435 (Parent) and MDA-MB-435-MDR cells for 4 hours with free doxorubicin and encapsulated doxorubicin using various formulations of mixed micelles. After 4 hours the doxorubicin was rinsed from the cells. After 24 hours the cell viability was measured using an MTS assay. MDA-MB-435 cells were treated with 4 μg/mL DOX, and […] cells were treated with 16 μg/mL DOX.

[2] = Stability of ICG in micelles in vitro (decay of fluorescence emission in water); assay type: physicochemical; conditions: within forty-eight hours, deionized water, dark
Source text: ICG has advantageous fluorescence properties for near-infrared imaging (NIR) in vivo but limitations include the molecule's photo, aqueous, and thermal instability as well as rapid binding to blood proteins and subsequent clearance by the liver. See, e.g., Cherrick, J. Clin. Invest. 39:592-600 (1959) and Kirchherr, et al., Mol. Pharmaceut. 6:480-491 (2009). Aqueous degradation of ICG occurs as a result of double bond saturation in the molecule's conjugated chain, and sequestering the molecule from the solvent radicals that activate this process reduces the rate of its degradation. See, e.g., Kirchherr et al., and Altinoglu and Adair, Wiley Interdisciplinary Reviews—Nanomedicine and Nanobiotechnology, 2:[…] (2010). To test the ability of the mixed micelle systems to stabilize ICG, the fluorescence of encapsulated dye was monitored over time at both room temperature and 37° C.
Stability of ICG in mixed micelles was evaluated by measuring decay of fluorescence emission in solution over a period of approximately ten days. […] At predetermined intervals, each mixture was sampled and the fluorescence intensity of the sample was evaluated with excitation at 775 nm and emission from 786 to 850 nm.

SMILES | cytotoxicity (cell viability, in words) [1] | ICG fluorescence, % of original fluorescence value ([2]; 37° C.) | ICG fluorescence, % of original fluorescence value ([2]; room temperature)
COc1cccc2c1C(=O)c1c(O)c3c(c(O)c1C2=O)C[C@@](O)(C(=O)CO)C[C@@H]3O[C@H]1C[C@H](N)[C@H](O)[C@H](C)O1 [Unencapsulated DOX, Doxorubicin] | limited effect | – | –
CC1(C)C(/C=C/C=C/C=C/C=C2\N(CCCCS(=O)(=O)O)c3ccc4ccccc4c3C2(C)C)=[N+](CCCCS(=O)(=O)[O-])c2ccc3ccccc3c21 [free ICG, indocyanine green] | – | less than 10% | less than 10%
